Here are results for eight compounds from ChEMBL document CHEMBL1201862, “PubChem BioAssay data set” (2004).

The source made the active and inactive calls. For most assays here, no stated cut-off is given here; in the data, actives have a measured EC50 and inactives only a lower limit.

For orientation: IC50 means the concentration at which inhibition is half-maximal. In general, AC50 refers to the concentration at which the activity in the assay is half-maximal. Usually EC50 stands for the midpoint of the concentration-response curve. What is called CC50 is the concentration at which the toxic effect on the cells reaches its halfway point.

The nature of experiment [1]: HEK-293T viability loss after treatment – luminescence, T-cell screen hits, cytotoxicity control for TCR NF-kB inhibitor project, dose response (AID 489026).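 Further: cells exposed to compound about 14 hours before the viability readout.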 The experiment is classed as functional, cell-based.
For experiment [2], the system named is INS1. The experiment in a line: INS-1E survival protection against cytokine death – cell-based, luminescence, retest, dose response (AID 449756).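 Further: cell death triggered by IL-1 beta plus TNF-alpha plus IFN-gamma mixture; protective hits raise ATP signal compared with cytokine alone wells.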 Format: functional. Particulars: Rattus norvegicus.
The nature of experiment [3]: NIH-3T3 fibroblast cytotoxicity, dose response, cytotoxicity control, cell-based, fluorescence, Alamar Blue, secondary assay (AID 2327).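 Further: NIH-3T3 mouse fibroblasts cultured with fluconazole at 8 µg/mL.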 The experiment is classed as functional. In general terms: Resazurin is reduced to fluorescent resorufin, in cell work by metabolically active cells.
A short description of experiment [4]: NIH3T3 cell viability loss – ATP luminescence, mouse fibroblasts, counter-screen, dose response (AID 2010).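 Further: cells exposed to compound for about 90 hours before reading.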 The experiment is classed as functional, cell-based.
A short description of experiment [5]: cells. The experiment is classed as functional, cell-based.
The nature of experiment [6]: fluconazole-exposed Candida albicans growth modulators – fluorescence, retest, confirmation (AID 2467). Format: functional, cell-based.
The target in experiment [7] is Heat shock protein HSP 90-alpha (Homo sapiens, UniProt P07900). Format: functional, organism-based.
The nature of experiment [8]: cells. The experiment is classed as functional, cell-based. This is another data set of the same source.
The nature of experiment [9]: Trypanosoma cruzi growth suppression in host cells – NIH3T3 host cells, beta-gal luminescence, confirmation (AID 2044).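 Further: intracellular parasites grown in NIH/3T3 mouse fibroblasts as host cells; luminescent beta-galactosidase reporter signal from transgenic T. cruzi replicating inside host cells; inhibitors lower the luminescence signal.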 The experiment is classed as functional, cell-based.
Experiment [10] deals with HEK293. Briefly: NOD2 signaling inhibitors in MDP-stimulated cells, cell-based, uHTS, luminescence (AID 2001). Particulars: Homo sapiens. Format: functional.
The subject of experiment [11] is HEK293. Briefly: cells. Format: functional, cell-based. Particulars: Homo sapiens.
Experiment [12] has as its target CAAX prenyl protease 2 (Saccharomyces cerevisiae S288c, UniProt Q03530). The experiment is classed as biochemical.
Experiment [13] addresses DNA repair protein RAD52 homolog (Homo sapiens, UniProt P43351). The experiment is classed as functional, biochemical.
In experiment [14] the test system is Streptococcus. Briefly: GAS UMAA2166 growth inhibition – luminescence, BacTiterGlo, counter-screen for streptokinase expression inhibitor project, dose response (AID 1915).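 Further: potency for reduction of bacterial viability or growth.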 Format: functional, organism-based. For orientation: Counterscreens check selectivity or assay interference.
In experiment [15] the test system is Streptococcus sp. 'group A'. Briefly: Streptococcus pyogenes SK(-)GAS viability under kanamycin – luminescence, BacTiterGlo, confirmation, counter-screen for streptokinase expression inhibitor project, dose response (AID 1900). Format: functional, organism-based.
The subject of experiment [16] is HEK293. The experiment in a line: inhibition of NOD1-driven NF-kB reporter – cell-based, luminescence, uHTS, primary screen (AID 1578). The experiment is classed as functional. The conditions noted are these: Homo sapiens.
Experiment [17] deals with CAAX prenyl protease 2 (Homo sapiens, UniProt Q9Y256). Briefly: inhibition of Ras-converting CAAX protease Rce1 – biochemical, yeast membranes, quenched-peptide fluorescence, cherry-pick, dose response (AID 588849).
Experiment [18] in a line: cells.
Experiment [19] deals with HEK293. Briefly: cells. Particulars: Homo sapiens. Format: functional, cell-based. This is another data set of the same source.
Experiment [20] addresses T1, Streptokinase A (Streptococcus pyogenes serotype M1, UniProt P10520).
T1 sequence (P10520 whole entry): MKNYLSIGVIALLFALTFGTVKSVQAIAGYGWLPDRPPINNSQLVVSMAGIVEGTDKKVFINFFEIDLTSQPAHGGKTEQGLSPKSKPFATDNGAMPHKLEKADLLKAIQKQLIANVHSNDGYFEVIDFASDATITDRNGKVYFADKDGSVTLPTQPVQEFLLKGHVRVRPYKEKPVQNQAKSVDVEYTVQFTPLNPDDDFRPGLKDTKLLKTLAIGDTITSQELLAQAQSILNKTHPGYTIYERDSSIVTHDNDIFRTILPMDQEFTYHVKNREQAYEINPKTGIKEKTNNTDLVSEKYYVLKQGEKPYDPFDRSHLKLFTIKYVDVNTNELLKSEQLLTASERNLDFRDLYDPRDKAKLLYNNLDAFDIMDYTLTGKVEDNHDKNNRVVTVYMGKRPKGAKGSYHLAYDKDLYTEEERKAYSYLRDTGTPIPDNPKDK
The experiment in a line: viability-normalized secreted streptokinase activity reduction – plasminogen activation absorbance, OD405, dose response (AID 1914).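 Further: secreted streptokinase activity via plasminogen activation per viability signal from cell pellet.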 The experiment is classed as functional, Streptococcus pyogenes M1 GAS.

Experiment [21] is described as follows: luciferase reporter signal suppression in cells – H4 neuroglioma cells, luminescence, dose response (AID 1990). Format: functional, cell-based.
Experiment [22] has as its system BJ. The experiment in a line: BJ-TERT fibroblast viability loss – cell-based, RAS-independent, luminescence, dose response (AID 1933). Format: functional. The conditions noted are these: Homo sapiens.
Experiment [23] has as its system BJ. The experiment in a line: BJ-TERT-LT-ST fibroblast viability loss – cell-based, RAS-independent, luminescence, dose response (AID 1935).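 Further: BJ fibroblasts immortalized with TERT plus LT and ST oncogenes.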 Particulars: Homo sapiens. Format: functional.
In experiment [24] the target is Hepatocyte nuclear factor 4-alpha (Homo sapiens, UniProt P41235). Format: functional, cell-based.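 Further: biochemical luminescence-based dose-response counterscreen measuring inhibition of HNF4 dimerization, run alongside a screen for blockers of ABHD5–perilipin-5 interaction; split luciferase complementation of HNF4 fusion proteins in cell lysate measuring dimerization.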
In experiment [25] the test system is BJ. Briefly: cells. The conditions noted are these: Homo sapiens. The experiment is classed as functional, cell-based.
Experiment [26] has as its target NS3 (Hepatitis C virus, UniProt A3EZJ3). Briefly: PubChem AID 2173. Details: species or system Hepacivirus hominis.
A short description of experiment [27]: DRD fibroblast viability loss – cell-based, non-viral oncogenic, luminescence, dose response (AID 1934). Format: functional. The conditions noted are these: Homo sapiens.
The nature of experiment [28]: Luminescence Cell-Based Dose Response HTS to Identify Inhibitors of 5'UTR Stem-Loop Driven Prion Protein mRNA Translation in H4 Neuroglioblastoma Cells. [Related pubchem assays: 1827 (Project Summary), 1813 (Primary HTS)]. Format: functional.
Experiment [29] can be described thus: alpha-synuclein stem-loop luciferase translation blockers – H4 neuroglioma cells, luminescence, confirmation (AID 1988). The experiment is classed as functional, cell-based.
For experiment [30], the target named is Cysteine protease ATG4B (Homo sapiens, UniProt Q9Y4P1). The experiment is classed as functional.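 Further: Fluorescence-based dose-response confirmation assay measuring inhibition of ATG4B activity.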
For experiment [31], the target named is Phospholipase A2 (Homo sapiens, UniProt P04054). Format: functional.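 Further: confirmatory dose-response counterscreen on phospholipase A2, testing hits that came from an ultra-high-throughput screen for ATG4B inhibitors.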
Experiment [32] concerns Vero. The experiment in a line: cells. Format: functional. The conditions noted are these: Chlorocebus sabaeus.
The target in experiment [33] is CAAX prenyl protease 1 (Saccharomyces cerevisiae S288c, UniProt P47154). The experiment in a line: yeast CAAX protease Ste24 inhibition – biochemical, S. cerevisiae, plate reader, cherry-pick, dose response (AID 488815).
Experiment [34] is described as follows: Luminescence Cell-Based Dose Retest to Confirm Inhibitors of Cancer Stem Cells. [Related pubchem assays (depositor defined):AID2717, AID2721]. The experiment is classed as functional. Particulars: Homo sapiens.
For experiment [35], the target named is ATP-dependent molecular chaperone HSP82 (Candida albicans (strain WO-1) (Yeast), UniProt C4YTQ8). The experiment in a line: steroid-induced GRE reporter decrease in yeast – S. cerevisiae, luminescence, Hsp90 inhibitor project, dose response (AID 2400).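 Further: beta-galactosidase luminescence from glucocorticoid response element reporter as proxy for Hsp90 function; inhibitor potency where signal loss means Hsp90 inhibition.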 Format: functional, cell-based.
The target of experiment [36] is Serine/threonine-protein phosphatase (Candida dubliniensis (strain CD36 / CBS 7987 / NCPF 3949 / NRRLY-17841) (Yeast), UniProt B9W6M3). Briefly: blockers of CaCl2-induced CDRE-lacZ signaling – S. cerevisiae, luminescence, secondary, dose response (AID 2388).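 Further: yeast reporter cells carrying a calcineurin-responsive lacZ construct stimulated with calcium chloride; luminescent beta-galactosidase reporter signal in whole cells rather than isolated phosphatase activity; potency for inhibition where a drop in reporter signal means calcineurin blockade.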 Format: functional, cell-based.
Serine/threonine-protein phosphatase, sequence (B9W6M3 whole entry): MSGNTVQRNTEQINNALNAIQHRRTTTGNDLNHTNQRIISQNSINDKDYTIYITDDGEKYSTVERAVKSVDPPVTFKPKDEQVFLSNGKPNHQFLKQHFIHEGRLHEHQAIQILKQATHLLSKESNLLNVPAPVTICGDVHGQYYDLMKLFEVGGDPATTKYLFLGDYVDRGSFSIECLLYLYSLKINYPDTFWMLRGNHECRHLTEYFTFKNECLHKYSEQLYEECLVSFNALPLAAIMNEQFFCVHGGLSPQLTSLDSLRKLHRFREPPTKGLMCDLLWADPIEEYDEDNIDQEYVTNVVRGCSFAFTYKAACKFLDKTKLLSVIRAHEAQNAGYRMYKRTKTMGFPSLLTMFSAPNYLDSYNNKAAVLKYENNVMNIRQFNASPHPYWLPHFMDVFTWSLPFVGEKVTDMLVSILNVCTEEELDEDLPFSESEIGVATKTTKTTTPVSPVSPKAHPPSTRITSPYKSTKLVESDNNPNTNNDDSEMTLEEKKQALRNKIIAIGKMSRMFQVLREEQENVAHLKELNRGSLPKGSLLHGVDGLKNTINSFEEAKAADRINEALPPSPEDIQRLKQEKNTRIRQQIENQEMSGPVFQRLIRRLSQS

CAAX prenyl protease 2 (Saccharomyces cerevisiae S288c, UniProt Q03530), sequence (Q03530 whole entry): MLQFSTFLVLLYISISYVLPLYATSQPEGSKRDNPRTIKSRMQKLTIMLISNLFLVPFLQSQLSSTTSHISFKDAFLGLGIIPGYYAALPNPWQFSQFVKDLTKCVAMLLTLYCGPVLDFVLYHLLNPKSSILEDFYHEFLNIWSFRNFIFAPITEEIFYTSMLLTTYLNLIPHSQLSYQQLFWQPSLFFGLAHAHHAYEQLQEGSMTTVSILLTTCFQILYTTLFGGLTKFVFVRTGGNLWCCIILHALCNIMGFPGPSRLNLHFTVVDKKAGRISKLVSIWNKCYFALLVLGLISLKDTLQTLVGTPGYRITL
Phospholipase A2, sequence (P04054 whole entry): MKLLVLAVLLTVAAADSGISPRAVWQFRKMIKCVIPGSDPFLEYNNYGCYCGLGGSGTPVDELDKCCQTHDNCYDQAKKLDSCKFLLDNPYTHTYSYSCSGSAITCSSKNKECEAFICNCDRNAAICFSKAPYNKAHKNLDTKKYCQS
CAAX prenyl protease 2 (Homo sapiens, UniProt Q9Y256), sequence (Q9Y256 whole entry): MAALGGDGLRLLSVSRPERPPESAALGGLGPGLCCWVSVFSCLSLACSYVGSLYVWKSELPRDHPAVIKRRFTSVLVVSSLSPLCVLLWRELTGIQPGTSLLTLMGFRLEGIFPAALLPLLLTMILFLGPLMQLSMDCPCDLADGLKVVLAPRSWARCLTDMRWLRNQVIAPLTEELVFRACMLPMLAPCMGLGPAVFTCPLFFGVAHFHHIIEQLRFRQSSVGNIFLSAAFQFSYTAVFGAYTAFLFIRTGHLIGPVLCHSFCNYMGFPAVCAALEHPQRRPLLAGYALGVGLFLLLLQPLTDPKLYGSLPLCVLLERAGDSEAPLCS
Cysteine protease ATG4B, sequence (Q9Y4P1 whole entry): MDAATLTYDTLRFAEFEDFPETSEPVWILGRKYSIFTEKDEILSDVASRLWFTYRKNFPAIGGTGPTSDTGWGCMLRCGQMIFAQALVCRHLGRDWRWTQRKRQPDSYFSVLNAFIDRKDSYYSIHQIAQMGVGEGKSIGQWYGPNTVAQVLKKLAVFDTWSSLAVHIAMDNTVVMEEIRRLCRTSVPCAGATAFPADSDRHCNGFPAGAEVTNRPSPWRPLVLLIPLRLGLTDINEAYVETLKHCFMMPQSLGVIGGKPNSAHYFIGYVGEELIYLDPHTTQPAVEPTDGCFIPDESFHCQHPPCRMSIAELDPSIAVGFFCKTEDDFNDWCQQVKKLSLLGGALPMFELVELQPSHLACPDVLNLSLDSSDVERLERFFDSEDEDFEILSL
CAAX prenyl protease 1, sequence (P47154 whole entry): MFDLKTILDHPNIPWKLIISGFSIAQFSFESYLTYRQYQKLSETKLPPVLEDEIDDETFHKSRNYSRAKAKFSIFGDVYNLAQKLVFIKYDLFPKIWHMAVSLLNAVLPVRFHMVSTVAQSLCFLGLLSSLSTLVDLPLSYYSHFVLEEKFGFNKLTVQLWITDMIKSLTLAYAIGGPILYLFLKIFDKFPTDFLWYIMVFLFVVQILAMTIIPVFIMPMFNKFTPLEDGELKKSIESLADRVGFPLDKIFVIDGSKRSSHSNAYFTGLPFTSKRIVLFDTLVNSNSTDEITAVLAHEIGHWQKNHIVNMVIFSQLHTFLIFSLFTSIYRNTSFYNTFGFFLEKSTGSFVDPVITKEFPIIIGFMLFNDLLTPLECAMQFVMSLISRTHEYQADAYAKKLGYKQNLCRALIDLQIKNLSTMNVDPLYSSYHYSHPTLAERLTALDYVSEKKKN
NS3, sequence (A3EZJ3 whole entry): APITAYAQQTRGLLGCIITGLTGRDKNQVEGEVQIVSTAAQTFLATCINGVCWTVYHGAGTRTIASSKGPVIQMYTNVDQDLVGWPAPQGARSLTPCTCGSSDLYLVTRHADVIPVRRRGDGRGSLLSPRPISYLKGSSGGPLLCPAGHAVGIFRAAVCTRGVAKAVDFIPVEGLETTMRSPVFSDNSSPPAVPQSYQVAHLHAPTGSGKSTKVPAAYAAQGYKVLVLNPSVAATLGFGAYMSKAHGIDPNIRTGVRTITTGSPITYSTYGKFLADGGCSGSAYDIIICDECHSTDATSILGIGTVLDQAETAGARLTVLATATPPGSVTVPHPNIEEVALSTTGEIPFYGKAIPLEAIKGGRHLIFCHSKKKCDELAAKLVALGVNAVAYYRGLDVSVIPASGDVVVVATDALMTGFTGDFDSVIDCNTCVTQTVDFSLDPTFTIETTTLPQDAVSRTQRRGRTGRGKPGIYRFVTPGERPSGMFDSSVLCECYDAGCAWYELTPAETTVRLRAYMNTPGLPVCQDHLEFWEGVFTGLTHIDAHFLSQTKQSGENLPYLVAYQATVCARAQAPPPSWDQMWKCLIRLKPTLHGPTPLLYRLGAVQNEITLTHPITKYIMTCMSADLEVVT
ATP-dependent molecular chaperone HSP82, sequence (C4YTQ8 whole entry): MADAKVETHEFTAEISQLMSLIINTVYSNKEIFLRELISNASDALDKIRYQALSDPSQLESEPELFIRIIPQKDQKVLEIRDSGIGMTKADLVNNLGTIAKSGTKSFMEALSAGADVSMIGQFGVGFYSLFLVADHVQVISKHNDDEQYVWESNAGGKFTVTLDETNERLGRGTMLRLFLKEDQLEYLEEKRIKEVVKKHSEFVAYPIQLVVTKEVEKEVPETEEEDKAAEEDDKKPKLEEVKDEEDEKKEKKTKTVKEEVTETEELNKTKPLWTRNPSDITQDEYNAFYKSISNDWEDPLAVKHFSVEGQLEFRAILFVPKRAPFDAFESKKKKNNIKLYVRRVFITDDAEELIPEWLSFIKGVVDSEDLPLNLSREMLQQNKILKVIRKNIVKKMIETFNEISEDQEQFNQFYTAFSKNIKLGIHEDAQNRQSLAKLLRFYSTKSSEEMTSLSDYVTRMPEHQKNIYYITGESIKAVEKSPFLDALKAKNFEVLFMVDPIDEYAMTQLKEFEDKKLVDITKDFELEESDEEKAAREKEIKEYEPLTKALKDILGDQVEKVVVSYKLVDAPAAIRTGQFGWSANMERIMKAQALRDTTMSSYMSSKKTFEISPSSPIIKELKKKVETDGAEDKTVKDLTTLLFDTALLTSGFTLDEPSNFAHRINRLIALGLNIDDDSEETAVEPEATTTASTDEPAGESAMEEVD
DNA repair protein RAD52 homolog, sequence (P43351 whole entry): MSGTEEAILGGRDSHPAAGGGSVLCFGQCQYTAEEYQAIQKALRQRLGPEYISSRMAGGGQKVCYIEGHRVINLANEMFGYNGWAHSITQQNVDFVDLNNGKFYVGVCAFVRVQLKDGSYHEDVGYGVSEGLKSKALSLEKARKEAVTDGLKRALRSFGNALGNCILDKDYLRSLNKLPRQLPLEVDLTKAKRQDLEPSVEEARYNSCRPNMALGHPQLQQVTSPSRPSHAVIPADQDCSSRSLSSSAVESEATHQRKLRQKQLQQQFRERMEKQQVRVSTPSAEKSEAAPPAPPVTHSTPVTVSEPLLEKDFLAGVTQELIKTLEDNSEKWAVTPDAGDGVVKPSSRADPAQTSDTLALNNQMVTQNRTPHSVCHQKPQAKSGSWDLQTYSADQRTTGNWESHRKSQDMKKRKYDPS
Hepatocyte nuclear factor 4-alpha, sequence (P41235 whole entry, the tested form may be a part): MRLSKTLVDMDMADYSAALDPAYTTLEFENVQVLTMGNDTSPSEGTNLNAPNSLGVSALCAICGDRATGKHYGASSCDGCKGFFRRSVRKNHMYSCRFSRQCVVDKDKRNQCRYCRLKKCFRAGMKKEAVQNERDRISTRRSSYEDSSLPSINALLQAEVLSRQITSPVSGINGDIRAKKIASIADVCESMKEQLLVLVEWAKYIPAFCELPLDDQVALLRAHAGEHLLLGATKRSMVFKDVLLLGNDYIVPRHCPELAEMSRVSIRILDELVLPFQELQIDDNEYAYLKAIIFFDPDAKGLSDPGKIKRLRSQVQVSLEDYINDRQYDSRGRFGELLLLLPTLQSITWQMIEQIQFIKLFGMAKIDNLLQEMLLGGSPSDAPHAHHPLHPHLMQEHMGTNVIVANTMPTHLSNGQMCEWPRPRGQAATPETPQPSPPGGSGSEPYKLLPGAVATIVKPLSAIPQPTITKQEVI

In the case of `CCC(=O)NC(c1cccs1)c1ccc2cccnc2c1O` (stereo unspecified), in experiment [1], the IC50 was > 80 µM (inactive). The results for the AC50 in experiment [2] and in experiment [7] were 0.86 µM (active) and 7.9 µM (active), respectively. The EC50 in experiment [3] is 3.59 µM (active); in [4], 1.48 µM (active); in [5], > 350 µM (not active); in experiment [6], 1.39 µM (active); in [8] it was 8.02 µM (active); in experiment [9], 0.48 µM (active).
`CCC(C)(C)c1ccc(OCCCC[n+]2cccc(C)c2)c(C(C)(C)CC)c1`: the figures for the IC50 in experiment [10], in experiment [11] and in [19] were 3.36 µM (active), 7.99 µM (active) and 4.11 µM (active), respectively. Further, the AC50 in [12] is 10.5 µM (active); in experiment [13], 7.32 µM (active); in experiment [17], 22 µM (active). Also, the concentration giving a half-maximal response (EC50) in experiment [14] was 14.9 µM (active); in experiment [15], 6.58 µM (active); in [16], 8.28 µM (active); in experiment [4], > 30 µM (not active); in experiment [18], 0.128 µM (active); in [9], < 0.1 µM (active). For the same compound, the EC50 in experiment [20] is 14.1 µM (active).
Regarding `Cc1ccc(C)c(/C=C/C(=O)c2ccccc(=O)c2O)c1`, the EC50 in experiment [21] is 13.9 µM (active); in experiment [22], 17.2 µM (inconclusive); in experiment [23] it was > 150 µM (not active); in experiment [14] it was 5 µM (active); in experiment [15], 1.41 µM (active); in experiment [25] it was 14.4 µM (active). The EC50 in [3] is > 150 µM (inactive); in experiment [4] it was 8.18 µM (active); in experiment [27], 56.8 µM (inconclusive); in [28], > 120 µM (not active); in experiment [6] it was 1.47 µM (active); in experiment [9], 2.29 µM (active). Also, in experiment [29], the EC50 was 12.7 µM (active). Also, the IC50 in experiment [24] is 6.56 µM (active); in [26] it was 2.52 µM (active). Further, the AC50 in experiment [7] is 2.42 µM (active).
Take `CCOC(=O)c1c(C)[nH]c(C(=O)COC(=O)COc2ccccc2C=O)c1C`: the IC50 is 10.5 µM (active) in [30] and 9.64 µM (active) in experiment [31].
For the compound `CCOc1ccc(Oc2c(/C=N/NC(=O)COc3ccccc3OC)c(C)nn2-c2ccccc2)cc1`, the CC50 in experiment [32] was > 25 µM (active).
For the compound `CNC(=S)N/N=C/c1cn(Cc2c(F)cccc2Cl)c2ccccc12`, the figures for the AC50 in experiment [33], in experiment [12] and in experiment [17] were 7.58 µM (active), 0.818 µM (active) and 16 µM (active), respectively.
As to `Cc1cccc(C(=O)NNC2=C(C(=O)C(F)(F)F)CCC2)c1O`, the AC50 in experiment [34] was 3.16 µM (active). Also, the EC50 in experiment [35] was 35.6 µM (active); in experiment [3], > 160 µM (inactive); in experiment [36] it was > 180 µM (inactive); in experiment [6] it was 0.53 µM (active).
Regarding `CCOC(=O)C(C)Sc1nc2ccccc2c(=O)n1CC1CCCCC1` (stereo unspecified), the IC50 in experiment [30] is 2.36 µM (active); in experiment [31], 2.05 µM (active).
